Experimental data reported in patent US20070167408A1, “NOVEL ALKYL PHOSPHOLIPID DERIVATIVES WITH REDUCED CYTOTOXICITY AND USES THEREOF” (ZENTARIS GmbH, priority 2005, published 2007).
≈ marks a conversion by molar mass, not a printed value.

Key:
[1] = system: RKOp21 (human colon adenocarcinoma) cells; assay: XTT cytotoxicity assay, RKOp21 cells; assay type: cell-based; conditions: 31.6 μM, second set of experiments
Summary of the method: (§1)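 Cells recovered 24 h after plating, then exposed to compounds for 48 h at 37 °C; one set used 10 semi-log concentrations from 100 μM, another 31.6 μM final for PC3 and RKOp21. XTT-PMS added for 3 h, formazan absorbance at 490 nm versus untreated cells; IC50 from inhibition curves.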

[2] = system: PC3 (human prostate carcinoma) cells; assay: XTT cytotoxicity assay, PC3 cells; assay type: cell-based; conditions: 31.6 μM, second set of experiments
Summary of the method: as §1

[3] = system: PC3, RKOp21 and SKOV-3 cell lines; assay: XTT cytotoxicity assay, mean over all three cell lines; assay type: cell-based, human; conditions: mean value over all three cell lines
Summary of the method: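 Cells had 2 days of continuous compound exposure, then 3 h with XTT-PMS at 37 °C, 5% CO2 to form formazan from living cells. The value is % inhibition of cell growth, averaged over PC3, RKOp21 and SKOV-3.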

[4] = system: Streptococcus pneumoniae DSM 20566 (ATCC 33400); assay: Anti-bacterial bouillon microdilution assay (MIC), bacterium A; assay type: cell-based; conditions: Streptococcus pneumoniae DSM 20566, 24 h
Procedure: Selected compounds of the invention were tested in a bouillon microdilution assay method according to the DIN 58940 (www.din.de) guidelines for determination of susceptibility of bacterial strains with regard to cell growth inhibition. The assay method quantifies bacterial cell growth which corresponds to the turbidity of the liquid culture medium by photometric measurement carried out at 595 nm.
The method of MIC determination was performed according to DIN 58940-5. The volumina were adapted according to the microdilution method as described in DIN 58940-7 guideline.
Dependent on water solubility, compounds of the invention were dissolved either in water or ethanol in a concentration of 10 mg/ml. Subsequently, the stock was further diluted in water to a concentration of 512 μg/ml. The following serial dilutions (factor 2) were performed in water resulting in the following […] testing concentrations: 256 μg/ml, 128 μg/ml, 64 μg/ml, 32 μg/ml, 16 μg/ml, 8 μg/ml, 4 μg/ml, 2 μg/ml, 1 μg/ml, 0.5 μg/ml, 0.25 μg/ml and 0.125 μg/ml. Diluted compounds of the invention were transferred in 100 μl volume to the microtiter plate wells.
Pre-cultures of bacteria were grown in appropriate liquid media (refer to ATCC webpage, www.atcc.org) and afterwards were inoculated in corresponding liquid medium. 100 μl of the inoculums [adjusted to an amount of app. 1×10^6 microorganisms per ml (range of 10^5-10^8 microorganisms per ml)] were added to each of the testing compound concentrations and cultivated under the appropriate conditions.
Before and after incubation, bacterial growth was determined by photometric analysis against a positive control containing growing bacteria without compound and a sterile/negative control containing only the medium.

[5] = system: Moraxella catarrhalis DMS 11994 (ATCC 43617); assay: Anti-bacterial bouillon microdilution assay (MIC), bacterium D; assay type: cell-based
Summary of the method: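 Broth microdilution MIC per DIN 58940-5/-7. Twofold compound dilutions in water spanned 256 to 0.125 μg/ml in the test concentration series, with inocula of about 1×10^6 organisms/ml in strain-appropriate media. Growth was read as turbidity at 595 nm before and after incubation, against growth and sterile controls.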

| Structure (SMILES) | RKOp21 % INH [31.6 μM] [1] | PC3 % INH [31.6 μM] [2] | Mean % INH [3] | MIC, bacterium A [4] | MIC, bacterium D ([5]; 24 h) | inhibition at 31.6 µM ([1]; Homo sapiens, read-out: RKOp21 % INH [31.6 μM]) | inhibition at 31.6 µM ([2]; Homo sapiens, PC-3, read-out: PC3 % INH [31.6 μM]) | MIC [4] | MIC ([5]; ATCC43617, 24 h) |
| --- | --- | --- | --- | --- | --- | --- | --- | --- | --- |
| CCCCCCCCCCCCCCCCOP(=O)([O-])OCC[N+]1(C)CCCCC1 [Compound 2, Phosphoric acid hexadecyl ester 2-(1-methyl-piperidin-1-yl)-ethyl ester] | 38.8% | 50.1% | 36.1% | 8 µg/mL (≈ 17.9 µM) | 4 µg/mL (≈ 8.94 µM) |  |  |  |  |
| CCCCCCCCCCCCCCCCOP(=O)([O-])OCC[N+](C)(C)C [miltefosine, hexadecylphosphocholine, reference compound] |  |  | 68.7% |  |  | 64% | 67.4% | 128 µg/mL (≈ 314 µM) | 16 µg/mL (≈ 39.3 µM) |
